In ChEMBL document CHEMBL4334519, “Anti-inflammatory and α-Glucosidase Inhibitory Activities of Labdane and Norlabdane Diterpenoids from the Rhizomes of Amomum villosum” (J Nat Prod, 2019):
The source made the active and inactive calls. The calls are words filed in the database; no cut-off is given here.

Key:
Saccharomyces cerevisiae [1] = test: Mixed-type inhibition of yeast alpha-glucosidase assessed as reduction in Km up to 20 uM using p-NPG as substrate measured up to 180 mins by Lineweaver-Burk plot analysis
[2] = Inhibition of yeast alpha-glucosidase using p-nitrophenyl-alpha-D-glucopyranoside as substrate preincubated for 30 mins followed by substrate addition and measured after 30 mins by microplate reader analysis; design: species or system Saccharomyces cerevisiae
RAW264.7 = test: Antiinflammatory activity against mouse RAW264.7 cells assessed as inhibition of LPS-induced nitric oxide production measured after 24 hrs; type: functional, cell-based; settings: RAW264.7, 24 h
Saccharomyces cerevisiae [3] = test: Mixed-type inhibition of yeast alpha-glucosidase assessed as reduction in Vmax up to 20 uM using p-NPG as substrate measured up to 180 mins by Lineweaver-Burk plot analysis
[4] = Mixed-type inhibition of yeast alpha-glucosidase assessed as inhibition constant using p-NPG as substrate measured up to 180 mins by Lineweaver-Burk plot analysis; design: species or system Saccharomyces cerevisiae
Saccharomyces cerevisiae [5] = test: Inhibition of yeast alpha-glucosidase at 50 uM using p-nitrophenyl-alpha-D-glucopyranoside as substrate preincubated for 30 mins followed by substrate addition and measured after 30 mins by microplate reader analysis

Row | SMILES | inhibition (Saccharomyces cerevisiae [1]) | IC50 [2] [µM] | IC50 (RAW264.7) [µM] | inhibition (Saccharomyces cerevisiae [3]) | Ki [4] [µM] | inhibition (Saccharomyces cerevisiae [5]) [%]
1 | C=C1CC[C@H]2C(C)(C)CCC[C@]2(C)[C@H]1/C=C/C1=CC(=O)O[C@H]1O | Active | 10 | 2.4 | Active | 9.5 | 95.7
2 | CNC(=N)NCCC[C@H](N)C(=O)O [TILARGININE] | – | – | 27.2 | – | – | –
3 | CC1(C)CCC[C@]2(C)CC3=C(C[C@@H]12)C(=O)CC3 | – | > 50 | 43.1 | – | – | 12.4
4 | C=C1CC[C@H]2C(C)(C)CCC[C@]2(C)[C@H]1CCC1=CC(=O)OC1 | – | 14.8 | 18.8 | – | – | 89
5 | OC[C@H]1NC[C@H](O)[C@@H](O)[C@@H]1O [DUVOGLUSTAT] | – | 115 | – | – | – | 36.8
6 | O=c1c(-c2ccc(O)cc2)coc2cc(O)cc(O)c12 [GENISTEIN] | – | 17.6 | – | – | – | 70

Results, then the compound that gave them:

Row | inhibition (Saccharomyces cerevisiae [1]) | IC50 [2] [µM] | IC50 (RAW264.7) [µM] | inhibition (Saccharomyces cerevisiae [3]) | Ki [4] [µM] | inhibition (Saccharomyces cerevisiae [5]) [%] | SMILES
7 | – | 15.8 | 24.6 | – | – | 87.8 | C=C1CC[C@H]2C(C)(C)CCC[C@]2(C)[C@H]1C/C=C1\CC(OC)OC1=O (some centres undefined)
8 | – | 13.8 | 31.2 | – | – | 89.3 | C=C1CC[C@H]2C(C)(C)CCC[C@]2(C)[C@H]1C/C=C1\CC(OCC)OC1=O (some centres undefined)
9 | – | 17.1 | 30.8 | – | – | 89.1 | C=C1CC[C@H]2C(C)(C)CCC[C@]2(C)[C@H]1C/C=C1\CCOC1=O
10 | – | > 50 | > 50 | – | – | 36.9 | C=C1CC[C@H]2C(C)(C)CCC[C@]2(C)[C@H]1C/C=C(/C=O)CCO
11 | – | > 50 | 23.7 | – | – | 33.2 | C=C1CC[C@H]2C(C)(C)CCC[C@]2(C)[C@H]1/C=C/C(=O)O
12 | – | 21.1 | 11 | – | – | 90.3 | C=C1CC[C@H]2C(C)(C)CCC[C@]2(C)[C@H]1C/C=C1\CC(=O)OC1=O
13 | – | 17.5 | 25.8 | – | – | 87.4 | C=C1CC[C@H]2C(C)(C)CCC[C@]2(C)[C@H]1CCC1=CC(O)OC1=O (some centres undefined) [CORONARIN C]
14 | – | > 50 | > 50 | – | – | 38.7 | C=C1CC[C@H]2C(C)(C)CCC[C@]2(C)[C@H]1C/C=C(\CC(=O)OCC)C(=O)O
15 | – | > 50 | 28.7 | – | – | 27.1 | C=C1CC[C@H]2C(C)(C)CCC[C@]2(C)[C@H]1C/C=C(/C=O)CO
